Like-named read-outs stand apart in the source and are kept apart here.
How the values were obtained:
Gastric carcinoma = assay: Inhibition of primary tumor cell cultures (48 hours) vs NK1 receptor immunostaining (Example 1); type: cell-based; conditions: Homo sapiens, 1 micromolar, read-out: Percentage of inhibition of cell cultures
Procedure: (§1) Cell cultures. To obtain tumor cells from human primary tumors we used the method described in De Bari et al. (De Bari et al. 2001). Briefly, small pieces of the tumors were digested into a hyaluronidase solution (Sigma-Aldrich, USA) at a concentration of 1 mg/ml during 15 minutes at 37°C, and then they were treated with 6 mg/ml of collagenase type IV (Invitrogen) during 2 hours at 37°C. Consecutively, cells were washed, and resuspended in the DMEM culture medium with high concentration of glucose (Dulbecco's Modified Eagle's Medium, Invitrogen) supplemented with 1% of antibiotics-antimycotics (Invitrogen) and with 1% of sodium pyruvate (Invitrogen), and the cells were seeded in culture slides at a concentration of 10.000 cells per square centimeter. When cells reached confluence, the adherent cells were separated using sterile trypsin at 0,5% (Invitrogen) and they were used among passages 3 and 9. For the assays shown next, tumor cells were seeded on slides at a concentration of 25.000 cells per well. A total of 6 wells containing the tumor cells were used as survival control. […] All the cultures were kept during 48 hours and later on recollected for their analysis.
(§2) Immunohistochemistry techniques. The presence of NK1 receptors was also analyzed using immunohistochemistry techniques. Briefly, a sample of each of the cultures of the cell lines used in the present invention, was centrifuged (5 minutes at 1.500 rpm) and the pellet obtained was dehydrated using increasing concentrations of ethanol and, finally, xylol. Then, said dehydrated samples were embedded in paraffin, creating a block of cells. Such paraffin blocks were cut with a microtome at 5 microns thickness, and were placed on microscope slides adequate to perform immunohistochemistry techniques. Consecutively, they were de-paraffinized by immersing them in xylol, to be finally hydrated using a solution containing decreasing concentrations of ethanol, and finally submerged them into water. […] After this, the samples were left to cool down at room temperature for 10 minutes. The endogenous peroxidase activity was blocked with 3% peroxide of hydrogen for 30 minutes at room temperature. After washing the samples with 0.05 M of Tris buffer, they were incubated with 10% non-immune pork serum at for 30 minutes at room temperature. To analyze the expression of NK1 receptors, the cellular samples were incubated in the presence of anti-NK1 antibodies (S8305, Sigma-Aldrich) diluted 1:1000, overnight at 4°C. Afterwards, the samples were washed in Tris buffer 0.05 M at room temperature. The next step was the addition of Envision System-HRP (Dako) reagents for 30 minutes at room temperature. Then, the samples were washed again in Tris buffer 0.05 M and the immunoreactivity was visualized through light microscopy with a chromogenic solution containing 3,3'-Diaminobenzidine (DAB+; Dako, USA). To differentiate the cell nuclei, they were slightly stained with hematoxylin. As negative control, it was used samples not incubated with the primary antibody anti-NK1, which was replaced by non-immune serum. All the samples were evaluated.
(§3) To value the immunostaining in each of the cases six cuts were performed to be analyzed by the immunohistochemistry technique. In each of the six cuts, it was counted cells in 20 fields (magnification 400x) using an Olympus microscope (model CX31). In each field it was counted the total number of cells and the number of cells presenting immunostaining, calculating afterwards the percentage of cells which presented immunostaining.

Colon carcinoma = assay: as above; type: cell-based; conditions: Homo sapiens, 1 micromolar, read-out: Percentage of inhibition of cell cultures
Procedure: as §1, §2, §3

Pancreatic carcinoma = assay: as above; type: cell-based; conditions: Homo sapiens, 1 micromolar, read-out: Percentage of inhibition of cell cultures
Procedure: as §1, §2, §3

[1] = system: Lung carcinoma (non small cell type); assay: as above; type: cell-based; conditions: Homo sapiens, 1 micromolar, read-out: Percentage of inhibition of cell cultures
Procedure: as §1, §2, §3

[2] = system: Lung carcinoma (small cell type); assay: as above; type: cell-based; conditions: Homo sapiens, 1 micromolar, read-out: Percentage of inhibition of cell cultures
Procedure: as §1, §2, §3

Fibrosarcoma = assay: as above; type: cell-based; conditions: Homo sapiens, 1 micromolar, read-out: Percentage of inhibition of cell cultures
Procedure: as §1, §2, §3

[3] = system: Malignant Fibrous Histiocytoma; assay: as above; type: cell-based; conditions: Homo sapiens, 1 micromolar, read-out: Percentage of inhibition of cell cultures
Procedure: as §1, §2, §3

Neuroblastoma = assay: as above; type: cell-based; conditions: Homo sapiens, 1 micromolar, read-out: Percentage of inhibition of cell cultures
Procedure: as §1, §2, §3

Burkitt Lymphoma [4] = assay: as above; type: cell-based; conditions: Homo sapiens, 1 micromolar, read-out: Percentage of inhibition of cell cultures
Procedure: as §1, §2, §3

[5] = system: Gastric carcinoma (Adenocarcinoma); assay: Inhibition of primary tumor cell cultures vs Kras mutation (Example 2); type: cell-based, human; conditions: Gastric carcinoma (Adenocarcinoma), 100 micromolar
Procedure: (§4) Cell cultures. […] Briefly, small pieces of the tumors were digested into a hyaluronidase solution (Sigma-Aldrich, USA) at a concentration of 1 mg/ml during 15 minutes at 37°C, and then they were treated with 6 mg/ml of collagenase type IV (Invitrogen) during 2 hours at 37°C. Consecutively, cells were washed, and resuspended in the DMEM culture medium with high concentration of glucose (Dulbecco's Modified Eagle's Medium, Invitrogen) supplemented with 1% of antibiotics-antimycotics (Invitrogen) and with 1% of sodium pyruvate (Invitrogen), and the cells were seeded in culture slides at a concentration of 10.000 cells per square centimeter. When cells reached confluence, the adherent cells were separated using sterile trypsin at 0,5% (Invitrogen) and they were used among passages 3 and 9. For the assays shown next, tumor cells were seeded on slides at a concentration of 25.000 cells per well. A total of 6 wells containing the tumor cells were used as survival control. […] All the cultures were kept during 48 hours and later on recollected for their analysis.
(§5) In each case the presence or not of mutations in K-ras gene was determined.
(§6) To determine the existence of mutations in the K-ras gene DNA from cancer tumor cells was extracted from samples obtained from the different cancer tumor cells, using DNA extraction kits from Takara (Madison, WI, US) or Ambion (Huntingdon, Cambridgeshire, United Kingdom), following the manufacturer's instructions, and as it has been previously published (Di Fiore F, et al. 2007). Consecutively it was analyzed by sequencing the exon 2 of the KRAS gene, , by means of PCR amplification from previously extracted cancer tumor DNA, using the following sense primer (SEQ ID NO. 15): 5'-[sequence]-3' and anti-sense primer (SEQ ID NO. 16): 5'-[sequence]-3'. After the purification using the Qiagen extraction kit, the PCR products were sequenced using the Big Dye Terminator Kit V3.1 (Applied Biosystems, Foster City, CA, U.S.) and an ABI Prism 377 or 3100 DNA sequencer (Applied Biosystems). The presence of a heterozygous mutation in the KRAS gene in cancer tumor cells of the cultures was defined as the appearance of a mutant peak of a height of at least a third of the wild type. All the sequence analysis were executed at least twice in two independent PCR.
(§7) The antibody against NK1 receptor (Table 16) was used at 1/50 concentration. The percentages of inhibition are expressed in percentage of variation in relation to control ± standard deviation.

[6] = system: Pancreatic carcinoma (Adenocarcinoma); assay: as above; type: cell-based, human; conditions: Pancreatic carcinoma (Adenocarcinoma), 100 micromolar
Procedure: as §4, §5, §6, §7

[7] = system: Lung carcinoma (non small cell lung carcinoma); assay: as above; type: cell-based, human; conditions: Lung carcinoma (non small cell lung carcinoma), 100 micromolar
Procedure: (§8) To obtain tumor cells from human primary tumors we used the method described in De Bari et al. (De Bari et al. 2001). Briefly, small pieces of the tumors were digested into a hyaluronidase solution (Sigma-Aldrich, USA) at a concentration of 1 mg/ml during 15 minutes at 37°C, and then they were treated with 6 mg/ml of collagenase type IV (Invitrogen) during 2 hours at 37°C. Consecutively, cells were washed, and resuspended in the DMEM culture medium with high concentration of glucose (Dulbecco's Modified Eagle's Medium, Invitrogen) supplemented with 1% of antibiotics-antimycotics (Invitrogen) and with 1% of sodium pyruvate (Invitrogen), and the cells were seeded in culture slides at a concentration of 10.000 cells per square centimeter. When cells reached confluence, the adherent cells were separated using sterile trypsin at 0,5% (Invitrogen) and they were used among passages 3 and 9. For the assays shown next, tumor cells were seeded on slides at a concentration of 25.000 cells per well. A total of 6 wells containing the tumor cells were used as survival control. […] All the cultures were kept during 48 hours and later on recollected for their analysis.
as §5, §6, §7

[8] = system: Thyroid carcinoma (follicular carcinoma); assay: as above; type: cell-based, human; conditions: Thyroid carcinoma (follicular carcinoma), 100 micromolar
Procedure: as §8, §5, §6, §7

[9] = system: Urinary bladder carcinoma (transitional cell carcinoma); assay: as above; type: cell-based, human; conditions: Urinary bladder carcinoma (transitional cell carcinoma), 100 micromolar
Procedure: as §8, §5, §6, §7

[10] = system: Non Hodgkin Lymphoma T (diffuse T cell lymphoma); assay: as above; type: cell-based, human; conditions: Non Hodgkin Lymphoma T (diffuse T cell lymphoma), 100 micromolar
Procedure: as §1, §5, §6
The percentages of inhibition are expressed in percentage of variation in relation to control ± standard deviation.

Burkitt Lymphoma [11] = assay: as above; type: cell-based, human; conditions: Burkitt Lymphoma, 100 micromolar
Procedure: as §1, §5, §6, §7

[12] = system: human primary tumor cells; assay: Inhibition of primary tumor cell cultures vs absence or presence of ERK  protein (Example 3; tumor type per table line); type: cell-based; conditions: 100 micromolar
[13] = NK1 receptor immunostaining Group 1 (less than 20% of the cells)
[14] = NK1 receptor immunostaining Group 2 (20-80% of the cells)
[15] = NK1 receptor immunostaining Group 3 (more than 80% of the cells)
[16] = NK1 receptor immunostaining Intensity grade 1
[17] = NK1 receptor immunostaining Intensity grade 2
[18] = NK1 receptor immunostaining Intensity grade 3
[19] = Cases with Kras non-mutated (wild type)

Compound `Cc1cc(F)ccc1[C@H]1CNCCN1C(=O)N(C)[C@H](C)c1cc(C(F)(F)F)cc(C(F)(F)F)c1` [Vestipitant] has an inhibition at 1 µM (Gastric carcinoma; [13]) of 11 ± 3%, an inhibition at 1 µM (Gastric carcinoma; [14]) of 48 ± 3% and an inhibition at 1 µM (Gastric carcinoma; [15]) of 92 ± 3%. The inhibition at 1 µM (Gastric carcinoma; [16]) was 19 ± 4%, the inhibition at 1 µM (Gastric carcinoma; [17]) was 49 ± 4% and the inhibition at 1 µM (Gastric carcinoma; [18]) was 92 ± 4%. The inhibition at 1 µM (Colon carcinoma; [13]) was 12 ± 4%, the inhibition at 1 µM (Colon carcinoma; [14]) was 45 ± 3% and the inhibition at 1 µM (Colon carcinoma; [15]) was 91 ± 2%. For the same compound, the inhibition at 1 µM (Colon carcinoma; [16]) was 18 ± 5%, the inhibition at 1 µM (Colon carcinoma; [17]) was 46 ± 4% and the inhibition at 1 µM (Colon carcinoma; [18]) was 91 ± 5%. For the same compound, the inhibition at 1 µM (Pancreatic carcinoma; [13]) was 11 ± 3%, the inhibition at 1 µM (Pancreatic carcinoma; [14]) was 45 ± 2% and the inhibition at 1 µM (Pancreatic carcinoma; [15]) was 91 ± 3%. It also gave an inhibition at 1 µM (Pancreatic carcinoma; [16]) of 21 ± 4%, an inhibition at 1 µM (Pancreatic carcinoma; [17]) of 47 ± 5% and an inhibition at 1 µM (Pancreatic carcinoma; [18]) of 91 ± 5%. The inhibition at 1 µM [1, 13] was 15 ± 2%, the inhibition at 1 µM [1, 14] was 45 ± 2% and the inhibition at 1 µM [1, 15] was 93 ± 4%. For the same compound, the inhibition at 1 µM [1, 16] was 17 ± 2%, the inhibition at 1 µM [1, 17] was 49 ± 5% and the inhibition at 1 µM [1, 18] was 93 ± 5%. The inhibition at 1 µM [2, 13] was 16 ± 3%, the inhibition at 1 µM [2, 14] was 46 ± 3% and the inhibition at 1 µM [2, 15] was 93 ± 3%. It also gave an inhibition at 1 µM [2, 16] of 18 ± 3%, an inhibition at 1 µM [2, 17] of 45 ± 3% and an inhibition at 1 µM [2, 18] of 93 ± 3%. The inhibition at 1 µM (Fibrosarcoma; [13]) was 16 ± 3%, the inhibition at 1 µM (Fibrosarcoma; [14]) was 45 ± 3% and the inhibition at 1 µM (Fibrosarcoma; [15]) was 91 ± 3%. The inhibition at 1 µM (Fibrosarcoma; [16]) was 18 ± 2%, the inhibition at 1 µM (Fibrosarcoma; [17]) was 47 ± 3% and the inhibition at 1 µM (Fibrosarcoma; [18]) was 91 ± 2%. For the same compound, the inhibition at 1 µM [3, 13] was 15 ± 4%, the inhibition at 1 µM [3, 14] was 46 ± 4% and the inhibition at 1 µM [3, 15] was 91 ± 5%. The inhibition at 1 µM [3, 16] was 17 ± 3%, the inhibition at 1 µM [3, 17] was 48 ± 4% and the inhibition at 1 µM [3, 18] was 91 ± 5%. The inhibition at 1 µM (Neuroblastoma; [13]) was 17 ± 2%, the inhibition at 1 µM (Neuroblastoma; [14]) was 46 ± 3% and the inhibition at 1 µM (Neuroblastoma; [15]) was 93 ± 3%. It also gave an inhibition at 1 µM (Neuroblastoma; [16]) of 16 ± 1%, an inhibition at 1 µM (Neuroblastoma; [17]) of 49 ± 5% and an inhibition at 1 µM (Neuroblastoma; [18]) of 93 ± 4%. For the same compound, the inhibition at 1 µM (Burkitt Lymphoma [4]; [13]) was 12 ± 3%, the inhibition at 1 µM (Burkitt Lymphoma [4]; [14]) was 45 ± 3% and the inhibition at 1 µM (Burkitt Lymphoma [4]; [15]) was 92 ± 4%. The inhibition at 1 µM (Burkitt Lymphoma [4]; [16]) was 15 ± 3%, the inhibition at 1 µM (Burkitt Lymphoma [4]; [17]) was 47 ± 5% and the inhibition at 1 µM (Burkitt Lymphoma [4]; [18]) was 92 ± 6%. The “Percentage of inhibition of cell cultures” value ([5]; Cases with Kras mutated) was 24±4 percentage, the “Percentage of inhibition of cell cultures” value [5, 19] was 96±4 percentage and the “Percentage of inhibition of cell cultures” value ([6]; Cases with Kras mutated) was 24±4 percentage. The “Percentage of inhibition of cell cultures” value [6, 19] was 97±4 percentage, the “Percentage of inhibition of cell cultures” value ([7]; Cases with Kras mutated) was 24±5 percentage and the “Percentage of inhibition of cell cultures” value [7, 19] was 96±6 percentage. The “Percentage of inhibition of cell cultures” value ([8]; Cases with Kras mutated) was 25±3 percentage, the “Percentage of inhibition of cell cultures” value [8, 19] was 97±4 percentage and the “Percentage of inhibition of cell cultures” value ([9]; Cases with Kras mutated) was 25±5 percentage. The “Percentage of inhibition of cell cultures” value [9, 19] was 95±6 percentage, the “Percentage of inhibition of cell cultures” value ([10]; Cases with Kras mutated) was 25±5 percentage and the “Percentage of inhibition of cell cultures” value [10, 19] was 96±5 percentage. The “Percentage of inhibition of cell cultures” value (Burkitt Lymphoma [11]; Cases with Kras mutated) was 24±3 percentage, the “Percentage of inhibition of cell cultures” value (Burkitt Lymphoma [11]; [19]) was 95±3 percentage and the “Percentage of inhibition of cell cultures” value ([12]; Breast carcinoma (ductal adenocarcinoma), cases with presence of ERK) was 94±3 percentage. The “Percentage of inhibition of cell cultures” value ([12]; Breast carcinoma (ductal adenocarcinoma), cases without presence of ERK) was 26±4 percentage, the “Percentage of inhibition of cell cultures” value ([12]; Burkitt Lymphoma, cases with presence of ERK) was 93±5 percentage and the “Percentage of inhibition of cell cultures” value ([12]; Burkitt Lymphoma, cases without presence of ERK) was 26±4 percentage. For the same compound, the “Percentage of inhibition of cell cultures” value ([12]; Carcinoma of the uterine cervix (Squamous cell carcinoma), cases with presence of ERK) was 94±4 percentage, the “Percentage of inhibition of cell cultures” value ([12]; Carcinoma of the uterine cervix (Squamous cell carcinoma), cases without presence of ERK) was 29±3 percentage and the “Percentage of inhibition of cell cultures” value ([12]; Colon carcinoma (Adenocarcinoma), cases with presence of ERK) was 94±3 percentage. For the same compound, the “Percentage of inhibition of cell cultures” value ([12]; Colon carcinoma (Adenocarcinoma), cases without presence of ERK) was 23 percentage, the “Percentage of inhibition of cell cultures” value ([12]; Endometrium carcinoma, cases with presence of ERK) was 93±3 percentage and the “Percentage of inhibition of cell cultures” value ([12]; Endometrium carcinoma, cases without presence of ERK) was 28±5 percentage.

Reference: EP2966448B1, “METHOD FOR THE PREDICTION OR PROGNOSIS OF THE RESPONSE OF A HUMAN SUBJECT SUFFERING FROM CANCER TO TREATMENT WITH AN ANTAGONIST OF THE NK1 RECEPTOR” (priority 2013, dated 2014)
